In one experiment the target is T1, GPR3 (Homo sapiens, UniProt P46089).
T1 construct: expressed in transfected cells; host or cells: CHO cells
In words: GPR3 antagonist functional cAMP assay (LANCE Ultra cAMP TR-FRET, CHO cells stably expressing GPR3). It is filed as cell-based. The essentials:
(§1)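 Read-out was TR-FRET cAMP signal at 665 nm after 1 h at room temperature, following 45 min compound exposure at 37 °C. Assay buffer contained 0.1% BSA and 150 μM Ro 20-1724. Antagonist IC50s were fitted with a 4-parameter logistic against DMSO and reference controls.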
Background: cAMP levels reflect the balance of adenylyl cyclase and phosphodiesterase activity.

A further experiment addresses T2, GPR6 (Homo sapiens, UniProt P46095).
T2 construct: expressed in transfected cells; host or cells: CHO cells
In words: GPR6 antagonist functional cAMP assay (LANCE Ultra cAMP TR-FRET, CHO cells stably expressing GPR6). It counts as cell-based. A digest of the protocol:
as §1

[1] abbreviates: CHO cells stably expressing GPR3, cAMP assay (Example 24).
The mark [2] stands for this setting: CHO cells stably expressing GPR6, cAMP assay (Example 24).
The mark [3] stands for this setting: CHO cells stably expressing GPR3, cAMP assay.
The mark [4] stands for this setting: CHO cells stably expressing GPR6, cAMP assay.
Where [5] appears, read: procedure as described in Example 24.

Experimental findings from patent US20260042755A1, “GPR6 INVERSE AGONISTS” (MapLight Therapeutics, Inc., priority 2022, published 2026) are described below.

T1 sequence (P46089 whole entry, species assumed): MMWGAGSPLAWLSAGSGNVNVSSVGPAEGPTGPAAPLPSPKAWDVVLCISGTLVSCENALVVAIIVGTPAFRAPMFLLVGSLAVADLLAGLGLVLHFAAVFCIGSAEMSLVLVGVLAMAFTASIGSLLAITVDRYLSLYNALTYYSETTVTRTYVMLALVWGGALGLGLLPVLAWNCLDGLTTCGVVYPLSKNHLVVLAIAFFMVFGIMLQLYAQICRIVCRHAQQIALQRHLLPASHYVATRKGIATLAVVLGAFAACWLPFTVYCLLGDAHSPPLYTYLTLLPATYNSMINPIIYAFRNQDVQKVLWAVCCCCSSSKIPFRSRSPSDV
T2 sequence (P46095 whole entry): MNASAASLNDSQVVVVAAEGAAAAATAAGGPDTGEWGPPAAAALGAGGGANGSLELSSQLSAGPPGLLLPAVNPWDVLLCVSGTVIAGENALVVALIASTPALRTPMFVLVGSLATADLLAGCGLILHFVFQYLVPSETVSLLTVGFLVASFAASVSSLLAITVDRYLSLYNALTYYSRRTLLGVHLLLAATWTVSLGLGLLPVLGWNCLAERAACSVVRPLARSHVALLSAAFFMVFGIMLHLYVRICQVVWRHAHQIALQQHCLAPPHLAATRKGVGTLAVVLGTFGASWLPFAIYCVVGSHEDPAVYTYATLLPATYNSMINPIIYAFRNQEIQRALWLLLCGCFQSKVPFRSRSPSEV

A word on the IC50: it is the point on the concentration scale where inhibition reaches its midpoint. A lower IC50 goes with inhibition by little substance. As to `CC(C)(O)C(O)c1cc2nc(N3CCC(Oc4ccc(F)cc4F)CC3)c(-c3cnn(C4CC4)c3)nc2cn1` (stereo not drawn) [Compound 469, 1-[3-(1-cyclopropyl-1H-pyrazol-4-yl)-2-[4-(2,4-difluorophenoxy)piperidin-1-yl]pyrido[3,4-b]pyrazin-7-yl]-2-methylpropane-1,2-diol], the IC50 against GPR3 (setting [1]) was 1000 to 30000 nM; against GPR6 (setting [2]), 100 to 1000 nM.
Consider `CC(=O)N1CCc2nc(N3CCC(C(O)c4ccc(F)cc4F)CC3)c(-c3ccc(F)c(N)n3)nc2C1` (stereo not drawn) [Compound 703, 1-[3-(6-amino-5-fluoro-2-pyridyl)-2-{4-[(2,4-difluorophenyl)hydroxymethyl]-1-piperidyl}-5,6,7,8-tetrahydro-1,4,6-triaza-6-naphthyl]-1-ethanone], for which the IC50 against GPR3 (procedure of Example 24) and at GPR6 (procedure of Example 24) was 1000 to 30000 nM in each case.
Regarding `CC(=O)N1CCc2nc(N3CCC(Oc4ccc(F)cc4F)CC3)c(-c3cccc(C)n3)nc2C1` [Compound 68, 1-{2-[4-(2,4-difluorophenoxy)piperidin-1-yl]-3-(6-methylpyridin-2-yl)-5H,6H,7H,8H-pyrido[3,4-b]pyrazin-6-yl}ethan-1-one], the figures for the IC50 on GPR3 (setting [1]) and against GPR6 (setting [2]) were 1000 to 30000 nM and 100 to 1000 nM, respectively.
Regarding `CCn1cc(-c2nc3c(nc2N2CCC(Oc4ccc(F)cc4F)CC2)CCN(C(=O)C(C)(O)CO)C3)cn1` (stereo not drawn) [Compound 519, 1-{2-[4-(2,4-difluorophenoxy)-1-piperidyl]-3-(1-ethyl-4-pyrazolyl)-5,6,7,8-tetrahydro-1,4,6-triaza-6-naphthyl}-2,3-dihydroxy-2-methyl-1-propanone], the IC50 at GPR3 (setting [3]) lay within 1000 to 30000 nM; against GPR6 (setting [4]), 100 to 1000 nM.
Consider `Cn1cc(-c2nc3cncc(N)c3nc2N2CCC(Oc3ccc(F)cc3F)CC2)cn1` [Compound 459, 2-[4-(2,4-difluorophenoxy)piperidin-1-yl]-3-(1-methyl-1H-pyrazol-4-yl)pyrido[3,4-b]pyrazin-8-amine], for which the IC50 against GPR3 (setting [1]) was in the range of 1000 to 30000 nM; at GPR6 (setting [2]) it was 100 to 1000 nM.
The matching figures for `CCn1cc(-c2nc3c(nc2N2CCC(Oc4ccc(F)cc4F)CC2)CCN(C(=O)OC(C)(C)C)C3)cn1` [Compound 260, tert-butyl 2-[4-(2,4-difluorophenoxy)piperidin-1-yl]-3-(1-ethyl-1H-pyrazol-4-yl)-5H,6H,7H,8H-pyrido[3,4-b]pyrazine-6-carboxylate]: 1000 to 30000 nM and 1000 to 30000 nM.
The matching figures for `COC(=O)c1cc2nc(N3CCC(Oc4ccc(F)cc4F)CC3)c(-c3cncc(OC)n3)nc2cn1` [Compound 221, methyl 2-[4-(2,4-difluorophenoxy)piperidin-1-yl]-3-(6-methoxypyrazin-2-yl)pyrido[3,4-b]pyrazine-7-carboxylate]: 1000 to 30000 nM and 1000 to 30000 nM.
Regarding `CNC(=O)Cn1cc(-c2nc3c(nc2N2CCC(Oc4ccc(F)cc4F)CC2)CCN(C(C)=O)C3)cn1` [Compound 25, 2-(4-{6-acetyl-2-[4-(2,4-difluorophenoxy)piperidin-1-yl]-5H,6H,7H,8H-pyrido[3,4-b]pyrazin-3-yl}-1H-pyrazol-1-yl)-N-methylacetamide], the IC50 at GPR3 (setting [5]) and against GPR6 (setting [5]) was 1000 to 30000 nM in each case.
As to `CCn1cc(-c2nc3cnc([C@](C)(O)C(C)(C)O)cc3nc2N2CCN(Cc3ccc(F)cc3F)CC2)cn1` (single isomer, unassigned) [Compound 697], the figures for the half-inhibitory concentration (IC50) against GPR3 (procedure of Example 24) and against GPR6 (procedure of Example 24) were 1000 to 30000 nM and 100 to 1000 nM, respectively.
For the molecule `CC(=O)N1CCc2nc(N3CCC(Oc4ccc(F)cc4F)CC3)c(-c3cnn(CC#N)c3)nc2C1` [Compound 81, 2-(4-{6-acetyl-2-[4-(2,4-difluorophenoxy)piperidin-1-yl]-5H,6H,7H,8H-pyrido[3,4-b]pyrazin-3-yl}-1H-pyrazol-1-yl)acetonitrile], the IC50 at GPR3 (setting [1]) lay within 1000 to 30000 nM; on GPR6 (setting [2]) it was 100 to 1000 nM.
For `CC(C)(O)C(=O)c1cc2nc(N3CCN(Cc4ccc(F)cc4F)CC3)c(-c3cnn(CF)c3)nc2cn1` [Compound 568, 1-(2-{4-[(2,4-difluorophenyl)methyl]-1-piperazinyl}-3-[1-(fluoromethyl)-4-pyrazolyl]-1,4,6-triaza-7-naphthyl)-2-hydroxy-2-methyl-1-propanone], the IC50 is 1000 to 30000 nM on GPR3 (setting [3]) and 100 to 1000 nM against GPR6 (setting [4]).
On to `Cn1cc(-c2nc3cnc(CC(O)CO)cc3nc2N2CCC(Oc3ccc(F)cc3F)CC2)cn1` (stereo not drawn) [Compound 377, 3-(2-(4-(2,4-difluorophenoxy)piperidin-1-yl)-3-(1-methyl-1H-pyrazol-4-yl)pyrido[3,4-b]pyrazin-7-yl)propane-1,2-diol], for which the IC50 lay in the range of 1000 to 30000 nM against GPR3 (setting [1]) and 100 to 1000 nM against GPR6 (setting [2]).
With `CC(=O)N1CCc2nc(N3CCC(Oc4ccc(F)cc4F)CC3)c(-c3cnn(C(C)(C)C#N)c3)nc2C1` [Compound 196, 2-(4-{6-acetyl-2-[4-(2,4-difluorophenoxy)piperidin-1-yl]-5H,6H,7H,8H-pyrido[3,4-b]pyrazin-3-yl}-1H-pyrazol-1-yl)-2-methylpropanenitrile], the concentration for half-maximal inhibition (IC50) on GPR3 (setting [1]) and at GPR6 (setting [2]) was 1000 to 30000 nM each time.
Take `CCn1cc(-c2nc3c(nc2N2CCC(Oc4ccc(F)cc4F)CC2)CCN(C(=O)C(O)CO)C3)cn1` (stereo not drawn) [Compound 484, 1-{2-[4-(2,4-difluorophenoxy)piperidin-1-yl]-3-(1-ethyl-1H-pyrazol-4-yl)-5H,6H,7H,8H-pyrido[3,4-b]pyrazin-6-yl}-2,3-dihydroxypropan-1-one]: the IC50 on GPR3 (setting [1]) lay within 1000 to 30000 nM; at GPR6 (setting [2]) it was 100 to 1000 nM.
Take `CC1CN(c2nc3ccncc3nc2-c2cn[nH]c2)CCN1Cc1ccc(F)cc1F` (single isomer, unassigned) [Compound 49, 2-(4-(2,4-difluorobenzyl)-3-methylpiperazin-1-yl)-3-(1H-pyrazol-4-yl)pyrido[3,4-b]pyrazine]: the IC50 against GPR3 (setting [5]) and on GPR6 (setting [5]) was 1000 to 30000 nM throughout.
Consider `CC(=O)OC1CCN(c2nc3c(nc2-c2cnn(C)c2)CN(Cc2ccccc2)CC3)C1` (stereo not drawn) [Compound 495, 1-[6-benzyl-3-(1-methyl-4-pyrazolyl)-5,6,7,8-tetrahydro-1,4,6-triaza-2-naphthyl]-3-pyrrolidinyl acetate], for which the IC50 on GPR3 (setting [3]) is ≥ 30000 nM; at GPR6 (setting [4]), 1000 to 30000 nM.
Turning to `CC(C)(O)[C@@](C)(O)c1cc2nc(-c3cnn(CF)c3)c(N3CCN(Cc4ccccc4F)CC3)nc2cn1` (single isomer, unassigned) [Compound 715], the IC50 lay within 1000 to 30000 nM on GPR3 (procedure of Example 24) and 100 to 1000 nM on GPR6 (procedure of Example 24).
`CC(=O)N1CCc2nc(N3CCN(Cc4cccn(C)c4=O)CC3)c(-c3cnn(C)c3)nc2C1` [Compound 534, 3-({4-[6-acetyl-3-(1-methyl-4-pyrazolyl)-5,6,7,8-tetrahydro-1,4,6-triaza-2-naphthyl]-1-piperazinyl}methyl)-1-methyl-2(1H)-pyridinone]: the IC50 at GPR3 (setting [3]) and against GPR6 (setting [4]) was ≥ 30000 nM throughout.
For `Cn1cc(-c2nc3cnc(O)cc3nc2N2CCC(Oc3ccc(F)cc3F)CC2)cn1` [Compound 395, 2-(4-(2,4-difluorophenoxy)piperidin-1-yl)-3-(1-methyl-1H-pyrazol-4-yl)pyrido[3,4-b]pyrazin-7-ol], the concentration for half-maximal inhibition (IC50) against GPR3 (setting [1]) and on GPR6 (setting [2]) was 1000 to 30000 nM in each case.
For `Cn1cc(-c2nc3cnc(C(N)=O)cc3nc2N2CCC(Oc3ccc(F)cc3F)CC2)cn1` [Compound 330, 2-[4-(2,4-difluorophenoxy)piperidin-1-yl]-3-(1-methyl-1H-pyrazol-4-yl)pyrido[3,4-b]pyrazine-7-carboxamide], the IC50 against GPR3 (procedure of Example 24) was in the range of 1000 to 30000 nM; on GPR6 (procedure of Example 24) it was 100 to 1000 nM.
For the molecule `CC(=O)N1CCc2nc(N3CCC(Oc4ccc(F)cc4F)CC3)c(-c3cnn(C(F)F)c3)nc2C1` [Compound 15, 1-{3-[1-(difluoromethyl)-1H-pyrazol-4-yl]-2-[4-(2,4-difluorophenoxy)piperidin-1-yl]-5H,6H,7H,8H-pyrido[3,4-b]pyrazin-6-yl}ethan-1-one], the figures for the IC50 against GPR3 (setting [5]) and against GPR6 (setting [5]) were 1000 to 30000 nM and 100 to 1000 nM, respectively.
Regarding `CCc1cncc(-c2nc3c(nc2N2CCC(Oc4ccc(F)cc4F)CC2)CCN(C(C)=O)C3)n1` [Compound 493, 1-{2-[4-(2,4-difluorophenoxy)piperidin-1-yl]-3-(6-ethylpyrazin-2-yl)-5H,6H,7H,8H-pyrido[3,4-b]pyrazin-6-yl}ethan-1-one], the half-maximal inhibitory concentration (IC50) against GPR3 (setting [3]) and on GPR6 (setting [4]) was 1000 to 30000 nM each time.
With `CC(=O)N1CCc2nc(N3CCC([C@@H](F)c4ccc(F)cc4F)CC3)c(-c3cnn(C)c3)nc2C1` (single isomer, unassigned) [Compound 659], the results for the IC50 at GPR3 (procedure of Example 24) and at GPR6 (procedure of Example 24) were 100 to 1000 nM and < 100 nM, respectively.
Consider `C[C@H](O)[C@H](O)c1cc2nc(N3CCC(Oc4ccc(F)cc4F)CC3)c(-c3cnn(C)c3)nc2cn1` (single isomer, unassigned) [Compound 471], for which the values for the IC50 against GPR3 (setting [1]) and on GPR6 (setting [2]) were 1000 to 30000 nM and 100 to 1000 nM, respectively.
Consider `CCn1cc(-c2nc3cc(C(C)(O)C(C)(C)O)ncc3nc2N2CCC(Oc3ccc(F)cc3F)CC2)cn1` (single isomer, unassigned) [Compound 740], for which the IC50 against GPR3 (procedure of Example 24) lay within 1000 to 30000 nM; against GPR6 (procedure of Example 24) it was 100 to 1000 nM.
In the case of `N#Cc1ccc2nc(N3CCN(Cc4cc(Cl)ccc4Cl)CC3)c(-c3ncc[nH]3)nc2c1` [Compound 27, 2-{4-[(2,5-dichlorophenyl)methyl]piperazin-1-yl}-3-(1H-imidazol-2-yl)quinoxaline-6-carbonitrile], the IC50 against GPR3 (setting [5]) was in the range of 100 to 1000 nM; at GPR6 (setting [5]) it was 1000 to 30000 nM.
`CC(C)(O)CNc1cc2nc(-c3cnn(CF)c3)c(N3CCN(Cc4ccc(F)cc4F)CC3)nc2cn1` [Compound 757, 1-(3-{4-[(2,4-difluorophenyl)methyl]-1-piperazinyl}-2-[1-(fluoromethyl)-4-pyrazolyl]-1,4,6-triaza-7-naphthylamino)-2-methyl-2-propanol]: the IC50 at GPR3 (procedure of Example 24) lay within 1000 to 30000 nM; against GPR6 (procedure of Example 24), 100 to 1000 nM.
